Laboratory results as given in ChEMBL document CHEMBL4038308, “Lipophosphonoxins II: Design, Synthesis, and Properties of Novel Broad Spectrum Antibacterial Agents” (J Med Chem, 2017).
Converted amounts (≈) assume the structure as drawn. The source made the active and inactive calls. The calls are words filed in the database; no cut-off is given here.

Columns and labels:
Staphylococcus aureus [1] = assay: Antibacterial activity against methicillin-resistant Staphylococcus aureus 4591 clinical isolates after 24 hrs by microdilution method; format: functional; settings: Staphylococcus aureus, 4591, 24 h
Oryctolagus cuniculus = assay: Toxicity in topically applied rabbit assessed as skin irritation measured by measuring physiological abnormalities up to 7 days post dose; settings: in vivo, topical_or_ocular, 168 h
Escherichia coli [2] = assay: Antibacterial activity against Escherichia coli 16702 after 24 hrs by microdilution method; format: functional; settings: Escherichia coli, 16702, 24 h
Staphylococcus aureus [3] = assay: Bactericidal activity against Staphylococcus aureus CCM 4223 assessed as reduction in bacterial count at 6.25 mg/L after 6 to 24 hrs by time kill assay; format: functional
Escherichia coli [4] = assay: Bactericidal activity against Escherichia coli CCM 3954 assessed as bacterial count at 25 mg/L up to 6 hrs by time kill assay; format: functional
[5] = Pore forming activity across black lipid bilayer membranes assessed as induction of variation in membrane current by measuring pore conductance at 5 ug/ml
TERT-RPE1 [6] = assay: Induction of apoptosis in human RPE1 cells assessed as caspase 3/7 activation up to 80 mg/L after 4 hrs by caspase-Glo 3/7 luminescent assay; format: cell-based; settings: tert-rpe1, 4 h
Bacillus subtilis [7] = assay: Antibacterial activity against Bacillus subtilis after 24 hrs by microdilution method; format: functional
BJ = assay: Cytotoxicity against human BJ cells assessed as reduction in cell viability after 48 hrs by ATPlite reagent based assay
TERT-RPE1 [8] = assay: Cytotoxicity against human RPE1 cells assessed as disruption of cell membrane integrity at >80 mg/L after 4 hrs by CytoTox-ONE-based assay; settings: tert-rpe1, 4 h
[9] = test system: Staphylococcus haemolyticus; assay: Antibacterial activity against fluoroquinolne-resistant Staphylococcus haemolyticus 16568 after 24 hrs by microdilution method; format: functional; settings: Staphylococcus haemolyticus, 16568, 24 h
[10] = Chemical stability of compound at 50 to 500 mg/L at pH 5 after 24 hrs at 37 degC by LC-MS analysis; format: physicochemical; settings: buffer, pH 5, 24 h
Enterococcus faecium = assay: Antibacterial activity against vancomycin-resistant Enterococcus faecium 419/ana clinical isolates after 24 hrs by microdilution method; format: functional
Bacillus subtilis [11] = assay: Antibacterial activity against Bacillus subtilis assessed as inhibition of RNA synthesis at 2.5 mg/L after 50 mins by [3H]-uridine incorporation assay; format: functional

CCCCCCCCCCCCCCOP(=O)(CCN(CCCN)CCCN)OC[C@H]1O[C@@H](n2ccc(=O)[nH]c2=O)[C@H](O)[C@@H]1O (some centres undefined)
MIC (Staphylococcus aureus [1]): 6.25 µg/mL (≈ 9.44 µM)
Activity (Oryctolagus cuniculus): Non-Toxic
MIC (Escherichia coli [2]): 3.13 µg/mL (≈ 4.73 µM)
Activity (Staphylococcus aureus [3]): Active
Activity (Escherichia coli [4]): 0
Activity [5]: 73 to 151 pS
Activity (TERT-RPE1 [6]): Non-Toxic
MIC (Bacillus subtilis [7]): 0.78 µg/mL (≈ 1.18 µM)
Activity (BJ): 30.7 mg/L
Activity (TERT-RPE1 [8]): Non-Toxic
MIC [9]: 1.56 µg/mL (≈ 2.36 µM)
Stability [10]: Stable
MIC (Enterococcus faecium): 100 µg/mL (≈ 151 µM)
inhibition (Bacillus subtilis [11]): inactive
